Patent publication US6489297B1, “Vasoactive intestinal peptide analogs” (Dabur Research Foundation, priority 2000, dated 2002)
Where a SMILES comes first, the peptide text is derived from it. [ ]: non-standard residue; d: D form. dPhe(4-Cl) = N[C@H](Cc1ccc(Cl)cc1)C(=O)O; Dpg = CCCC(N)(CCC)C(=O)O; Ac5c = NC1(C(=O)O)CCCC1; Deg = CCC(N)(CC)C(=O)O; Aib = CC(C)(N)C(=O)O

Tests used:
Assay type in all cases: cell-based, human
Details in all cases: 72 hours
[1] = test system: PA-1 (ovary); experiment: MTT cytotoxicity assay, PA-1 cells
Experimental: (§1) The cytotoxic activity of synthesized peptides was tested on […] human tumor cell lines namely PA-1 (ovary), SW620 (colon) HuTu80 (duodenum), L132 (lung), U87MG (glioblastoma), KB (oral), MIAPaCa2(pancreas), A549(non small cell lung) and HT-29(colon). The tumor cells were collected at exponential growth phase and resuspended in medium (1.5×10^6 cells/ml in RPMI 1640 containing 10% FBS). 150 μl of medium was added to the wells of a 96-well tissue culture plate (Nunc, Denmark) followed by 30 μl of cell suspension. The plate was left in incubator (37° C., 5% CO2) overnight. 20 μl of the peptide (100 pM to 1 uM concentration) was added to marked wells of the 96-well plate. Each concentration was plated in triplicates. 20 μl of medium alone was added to control wells while wells without cells served as blanks. A total volume of 200 μl was ensured in each well and plate was left in incubator (37° C., 5% CO2). After 72 hours of incubation an MTT assay was performed and percentage cytotoxicity was calculated with respect to control cells. Following Tables show the maximum cytotoxicity achieved on various cell lines.

[2] = test system: SW620 (colon); experiment: MTT cytotoxicity assay, SW620 cells
Experimental: as §1

[3] = test system: HuTu80 (duodenum); experiment: MTT cytotoxicity assay, HuTu80 cells
Experimental: as §1

[4] = test system: L132 (lung); experiment: MTT cytotoxicity assay, L132 cells
Experimental: as §1

[5] = test system: U87MG (glioblastoma); experiment: MTT cytotoxicity assay, U87MG cells
Experimental: as §1

[6] = test system: KB (oral); experiment: MTT cytotoxicity assay, KB cells
Experimental: as §1

SMILES	Percentage cytotoxicity ([1]; PA1, 100 pM) [%]	Percentage cytotoxicity ([1]; PA1, 1 nM) [%]	Percentage cytotoxicity ([1]; PA1, 10 nM) [%]	Percentage cytotoxicity ([1]; PA1, 100 nM) [%]	Percentage cytotoxicity ([1]; PA1, 1 μM) [%]	Percentage cytotoxicity ([2]; SW620, 100 pM) [%]	Percentage cytotoxicity ([2]; SW620, 1 nM) [%]	Percentage cytotoxicity ([2]; SW620, 10 nM) [%]	Percentage cytotoxicity ([2]; SW620, 100 nM) [%]	Percentage cytotoxicity ([2]; SW620, 1 μM) [%]	Percentage cytotoxicity ([3]; HuTu80, 100 pM) [%]	Percentage cytotoxicity ([3]; HuTu80, 1 nM) [%]	Percentage cytotoxicity ([3]; HuTu80, 10 nM) [%]	Percentage cytotoxicity ([3]; HuTu80, 100 nM) [%]	Percentage cytotoxicity ([3]; HuTu80, 1 μM) [%]	Percentage cytotoxicity ([4]; L132, 100 pM) [%]	Percentage cytotoxicity ([4]; L132, 1 nM) [%]	Percentage cytotoxicity ([4]; L132, 10 nM) [%]	Percentage cytotoxicity ([4]; L132, 100 nM) [%]	Percentage cytotoxicity ([4]; L132, 1 μM) [%]	also measured
CC[C@H](C)[C@H](NC(=O)[C@H](CO)NC(=O)[C@H](CC(N)=O)NC(=O)[C@H](CC(C)C)NC(=O)[C@H](Cc1ccc(O)cc1)NC(=O)[C@H](CCCCN)NC(=O)[C@H](CCCCN)NC(=O)[C@@H](NC(=O)[C@H](C)NC(=O)[C@H](CC(C)C)NC(=O)[C@H](CCC(N)=O)NC(=O)[C@H](CCCCN)NC(=O)[C@H](CCCNC(=N)N)NC(=O)[C@H](CC(C)C)NC(=O)[C@H](CCCNC(=N)N)NC(=O)[C@@H](NC(=O)[C@H](Cc1ccc(O)cc1)NC(=O)[C@H](CC(N)=O)NC(=O)[C@H](CC(=O)O)NC(=O)[C@@H](NC(=O)[C@@H](Cc1ccc(Cl)cc1)NC(=O)[C@@H](NC(=O)C(CC)(CC)NC(=O)[C@H](CC(=O)O)NC(=O)[C@H](CO)NC(=O)[C@@H](N)Cc1c[nH]cn1)C(C)C)[C@@H](C)O)[C@@H](C)O)C(C)C)C(=O)N[C@@H](CC(C)C)C(=O)N[C@@H](CC(N)=O)C(N)=O [SEQ ID NO: 3] (H-HSD[Deg]V[dPhe(4-Cl)]TDNYTRLRKQLAVKKYLNSILN-NH2)	15 ± 4.5	29 ± 5.8	22 ± 4.5	23.5 ± 5.2	22.1 ± 4.5	15.9 ± 6.6	29 ± 5.6	27 ± 5.5	22 ± 7.3	16 ± 3.4	14 ± 7.8	29 ± 6.2	28 ± 4.7	24 ± 7.8	14.5 ± 7.1	14 ± 5.6	23 ± 3.5	29 ± 6.7	26 ± 6.5	14 ± 6.5	Percentage cytotoxicity ([5]; 100 pM): 11 ± 7.8%; Percentage cytotoxicity ([5]; 1 nM): 16 ± 6.6%; Percentage cytotoxicity ([5]; 10 nM): 28 ± 7.5%; Percentage cytotoxicity ([5]; 100 nM): 26 ± 6.7%; Percentage cytotoxicity ([5]; 1 μM): 25 ± 4.6%; Percentage cytotoxicity ([6]; 100 pM): 13 ± 8.5%; Percentage cytotoxicity ([6]; 1 nM): 24.5 ± 9.5%; Percentage cytotoxicity ([6]; 10 nM): 22 ± 8.2%; Percentage cytotoxicity ([6]; 100 nM): 18 ± 8.5%; Percentage cytotoxicity ([6]; 1 μM): 14 ± 3.4%
CC[C@H](C)[C@H](NC(=O)[C@H](CO)NC(=O)[C@H](CC(N)=O)NC(=O)[C@H](CC(C)C)NC(=O)[C@H](Cc1ccc(O)cc1)NC(=O)[C@H](CCCCN)NC(=O)[C@H](CCCCN)NC(=O)[C@@H](NC(=O)[C@H](C)NC(=O)[C@H](CC(C)C)NC(=O)[C@H](CCC(N)=O)NC(=O)[C@H](CCCCN)NC(=O)[C@H](CCCNC(=N)N)NC(=O)[C@H](CC(C)C)NC(=O)[C@H](CCCNC(=N)N)NC(=O)[C@@H](NC(=O)[C@H](Cc1ccc(O)cc1)NC(=O)[C@H](CC(N)=O)NC(=O)[C@H](CC(=O)O)NC(=O)[C@@H](NC(=O)[C@@H](Cc1ccc(Cl)cc1)NC(=O)[C@@H](NC(=O)C1(NC(=O)[C@H](CC(=O)O)NC(=O)[C@H](CO)NC(=O)[C@@H](N)Cc2c[nH]cn2)CCCC1)C(C)C)[C@@H](C)O)[C@@H](C)O)C(C)C)C(=O)N[C@@H](CC(C)C)C(=O)N[C@@H](CC(N)=O)C(N)=O [SEQ ID NO: 4] (H-HSD[Ac5c]V[dPhe(4-Cl)]TDNYTRLRKQLAVKKYLNSILN-NH2)	16.1 ± 0.0	30 ± 6.0	23 ± 3.5	22.3 ± 4.5	21 ± 5.5	16.9 ± 5.5	31 ± 6.5	28.5 ± 4.5	23 ± 6.7	15 ± 4.5	11 ± 8.0	30 ± 7.0	27 ± 5.0	27 ± 7.9	15.5 ± 6.5	11 ± 8.0	27 ± 4.5	30 ± 5.5	28 ± 5.5	13 ± 4.5	Percentage cytotoxicity ([5]; 100 pM): 10 ± 4.6%; Percentage cytotoxicity ([5]; 1 nM): 15 ± 7.8%; Percentage cytotoxicity ([5]; 10 nM): 29 ± 6.7%; Percentage cytotoxicity ([5]; 100 nM): 28 ± 7.7%; Percentage cytotoxicity ([5]; 1 μM): 27 ± 5.5%; Percentage cytotoxicity ([6]; 100 pM): 13 ± 8.0%; Percentage cytotoxicity ([6]; 1 nM): 30 ± 7.8%; Percentage cytotoxicity ([6]; 10 nM): 27 ± 7.8%; Percentage cytotoxicity ([6]; 100 nM): 26 ± 5.6%; Percentage cytotoxicity ([6]; 1 μM): 27 ± 4.3%
CCCC(CCC)(NC(=O)[C@H](CCC(N)=O)NC(=O)[C@H](CCCCN)NC(=O)[C@H](CCCNC(=N)N)NC(=O)[C@H](CC(C)C)NC(=O)[C@H](CCCNC(=N)N)NC(=O)[C@@H](NC(=O)[C@H](Cc1ccc(O)cc1)NC(=O)[C@H](CC(N)=O)NC(=O)[C@H](CC(=O)O)NC(=O)[C@@H](NC(=O)[C@H](Cc1ccccc1)NC(=O)[C@@H](NC(=O)C(C)(C)NC(=O)[C@H](CC(=O)O)NC(=O)[C@H](CO)NC(=O)[C@@H](N)Cc1c[nH]cn1)C(C)C)[C@@H](C)O)[C@@H](C)O)C(=O)N[C@@H](C)C(=O)N[C@H](C(=O)N[C@@H](CCCCN)C(=O)N[C@@H](CCCCN)C(=O)N[C@@H](Cc1ccc(O)cc1)C(=O)N[C@@H](CC(C)C)C(=O)N[C@@H](CC(N)=O)C(=O)N[C@@H](CO)C(=O)N[C@H](C(=O)N[C@@H](CC(C)C)C(=O)N[C@@H](CC(N)=O)C(N)=O)[C@@H](C)CC)C(C)C [SEQ ID NO: 9, His-Ser-Asp-Aib-Val-Phe-Thr-Asp-Asn-Tyr-Thr-Arg-Leu-Arg-Lys-Gln-Dpg-Ala-Val-Lys-Lys-Tyr-Leu-Asn-Ser-Ile-Leu-Asn-NH2] (H-HSD[Aib]VFTDNYTRLRKQ[Dpg]AVKKYLNSILN-NH2)	15.5 ± 3.3	27.8 ± 4.3	25.6 ± 4.5	17.4 ± 3.2	15.1 ± 2.3	15.9 ± 4.5	28 ± 5.0	27 ± 3.4	21 ± 3.6	16.7 ± 4.1	14.6 ± 2.7	28.5 ± 3.2	26 ± 5.5	23 ± 6.0	14.6 ± 5.1	17 ± 2.3	20 ± 0.0	18.9 ± 6.0	17.5 ± 5.5	13.6 ± 5.6	Percentage cytotoxicity ([5]; 100 pM): 11.5 ± 5.0%; Percentage cytotoxicity ([5]; 1 nM): 13.7 ± 3.6%; Percentage cytotoxicity ([5]; 10 nM): 26.7 ± 3.5%; Percentage cytotoxicity ([5]; 100 nM): 18.9 ± 6.5%; Percentage cytotoxicity ([5]; 1 μM): 12.5 ± 6.5%; Percentage cytotoxicity ([6]; 100 pM): 13 ± 5.0%; Percentage cytotoxicity ([6]; 1 nM): 21.5 ± 4.5%; Percentage cytotoxicity ([6]; 10 nM): 16.7 ± 3.2%; Percentage cytotoxicity ([6]; 100 nM): 16.7 ± 5.1%; Percentage cytotoxicity ([6]; 1 μM): 10.5 ± 6.5%
